Data on 26 compounds can be found in patent publication US20250154127A1, “BICYCLIC HETEROARYL COMPOUNDS AND USES THEREOF” (ETERN BIOPHARMA (SHANGHAI) CO., LTD., priority 2022, published 2025).

Assay [1] deals with TEAD1(210-426) binding to YAP(50-100) (Homo sapiens, UniProt P28347). Kind of assay: TR-FRET Assay for TEAD1(210-426) Binding to YAP(50-100). Conditions: His-TEAD 10 nM, YAP-Biotin peptide 50 nM. An outline of the steps: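 10 nM His-TEAD1 preincubated 30 min at room temperature with compound (3-fold dilutions, 12 points, 1% DMSO), then 50 nM biotin-YAP peptide added.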
Sequence of TEAD1(210-426) binding to YAP(50-100) (P28347 209-426): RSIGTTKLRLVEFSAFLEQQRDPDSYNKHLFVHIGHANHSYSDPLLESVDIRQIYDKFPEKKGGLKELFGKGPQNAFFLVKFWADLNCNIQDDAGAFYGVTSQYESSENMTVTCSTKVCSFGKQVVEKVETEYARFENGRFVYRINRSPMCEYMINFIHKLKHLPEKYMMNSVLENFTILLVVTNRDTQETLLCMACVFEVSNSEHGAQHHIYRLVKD
Assay [2] deals with MSTO-211H cells. The experiment in a line: Proliferation Assay (CellTiter-Glo Luminescent Cell Viability Assay). In kind it is cell-based. Conditions: Homo sapiens, 96 hours treatment. An outline of the steps:
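MSTO-211H cells, 1,500/well in RPMI 1640 with 10% FBS, plated overnight, then treated 96 h with 9-point 3-fold compound series in duplicate (DMSO below 0.5%). Viability by CellTiter-Glo luminescence; inhibition relative to DMSO wells, IC50 by four-parameter fit.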
(In ATP-based viability assays light output follows the ATP content of the culture.)

Where only a bound is given, the exact number is not on record here.

One may read the IC50 as the concentration that inhibits the measured activity by half. Low readings indicate inhibition by little substance, high ones a need for much substance. As for `Cn1ccc(Cn2ccc(-c3nn(-c4ccc(C(F)(F)F)cc4)c4ncccc34)cc2=O)n1` [Compound 111, 1-((1-methyl-1H-pyrazol-3-yl)methyl)-4-(1-(4-(trifluoromethyl)phenyl)-1H-pyrazolo[3,4-b]pyridin-3-yl)pyridin-2(1H)-one], the IC50 in assay [1] was at most 100 nM; in assay [2], at most 1000 nM.

As to `Nc1cc(Cn2ccc(-c3nn(-c4ccc(C(F)(F)F)cc4)c4ncccc34)cc2=O)ccn1` [Compound 112, 1-((2-aminopyridin-4-yl)methyl)-4-(1-(4-(trifluoromethyl)phenyl)-1H-pyrazolo[3,4-b]pyridin-3-yl)pyridin-2(1H)-one], the IC50 was at most 100 nM in assay [1] and at most 1000 nM in assay [2].

`O=c1cc(-c2nn(-c3ccc(C(F)(F)F)cc3)c3ncccc23)ccn1Cc1ncccn1` [Compound 115, 1-(pyrimidin-2-ylmethyl)-4-(1-(4-(trifluoromethyl)phenyl)-1H-pyrazolo[3,4-b]pyridin-3-yl)pyridin-2(1H)-one]: the IC50 in assay [1] is at most 100 nM; in assay [2], at most 1000 nM.

With `Nc1nccc(Cn2ccc(-n3nc(-c4ccc(C(F)(F)F)cc4)c4ncccc43)cc2=O)n1` [Compound 118, 1-((2-aminopyrimidin-4-yl)methyl)-4-(3-(4-(trifluoromethyl)phenyl)-1H-pyrazolo[4,3-b]pyridin-1-yl)pyridin-2(1H)-one], the IC50 is at most 100 nM in assay [1] and at most 1000 nM in assay [2].

In the case of `Nc1ccnc(Cn2ccc(-n3nc(-c4ccc(C(F)(F)F)cc4)c4ncccc43)cc2=O)n1` [Compound 119, 1-((4-aminopyrimidin-2-yl)methyl)-4-(3-(4-(trifluoromethyl)phenyl)-1H-pyrazolo[4,3-b]pyridin-1-yl)pyridin-2(1H)-one], the IC50 in assay [1] is at most 100 nM; in assay [2] it was at most 1000 nM.

Regarding `O=c1cc(-n2nc(-c3ccc(C(F)(F)F)cc3)c3ncccc32)ccn1Cc1cccnc1` [Compound 120, 1-(pyridin-3-ylmethyl)-4-(3-(4-(trifluoromethyl)phenyl)-1H-pyrazolo[4,3-b]pyridin-1-yl)pyridin-2(1H)-one], the concentration for half-maximal inhibition (IC50) in assay [1] was at most 100 nM; in assay [2], at most 1000 nM.

`Nc1cc(Cn2ccc(-n3nc(-c4ccc(C(F)(F)F)cc4)c4ncccc43)cc2=O)ccn1` [Compound 121, 1-((2-aminopyridin-4-yl)methyl)-4-(3-(4-(trifluoromethyl)phenyl)-1H-pyrazolo[4,3-b]pyridin-1-yl)pyridin-2(1H)-one]: the IC50 in assay [1] was at most 100 nM; in assay [2], at most 1000 nM.

In the case of `CNc1ccnc(Cn2ccc(-c3nc(-c4ccc(C(F)(F)F)cc4)n4ccccc34)cc2=O)n1` [Compound 125, 1-((4-(methylamino)pyrimidin-2-yl)methyl)-4-(3-(4-(trifluoromethyl)phenyl)imidazo[1,5-a]pyridin-1-yl)pyridin-2(1H)-one], the half-inhibitory concentration (IC50) in assay [1] is at most 100 nM; in assay [2], at most 1000 nM.

For the compound `O=c1cc(-c2nn(-c3ccc(C(F)(F)F)cc3)c3ncccc23)ccn1Cc1ccnc(OCCO)n1` [Compound 126, 1-((2-(2-hydroxyethoxy)pyrimidin-4-yl)methyl)-4-(1-(4-(trifluoromethyl)phenyl)-1H-pyrazolo[3,4-b]pyridin-3-yl)pyridin-2(1H)-one], the IC50 in assay [1] was at most 100 nM; in assay [2], at most 1000 nM.

`CNc1nccc(Cn2ccc(-c3nc(-c4ccc(C(F)(F)F)cc4)n4ccccc34)cc2=O)n1` [Compound 127, 1-((2-(methylamino)pyrimidin-4-yl)methyl)-4-(3-(4-(trifluoromethyl)phenyl)imidazo[1,5-a]pyridin-1-yl)pyridin-2(1H)-one]: the figures for the half-maximal inhibitory concentration (IC50) in assay [1] and in assay [2] were at most 100 nM and at most 1000 nM, respectively.

In the case of `CNc1nccc(Cn2ccc(-c3nn(-c4ccc(C(F)(F)F)cc4)c4c(F)cccc34)cc2=O)n1` [Compound 128, 4-(7-fluoro-1-(4-(trifluoromethyl)phenyl)-1H-indazol-3-yl)-1-((2-(methylamino)pyrimidin-4-yl)methyl)pyridin-2(1H)-one], the 50% inhibitory concentration (IC50) was at most 100 nM in assay [1] and at most 1000 nM in assay [2].

`CNc1ccnc(Cn2ccc(-c3nn(-c4ccc(C(F)(F)F)cc4)c4c(F)cccc34)cc2=O)n1` [Compound 129, 4-(7-fluoro-1-(4-(trifluoromethyl)phenyl)-1H-indazol-3-yl)-1-((4-(methylamino)pyrimidin-2-yl)methyl)pyridin-2(1H)-one]: the IC50 in assay [1] was at most 100 nM; in assay [2], at most 1000 nM.

With `CNc1nccc([C@@H](C)n2ccc(-c3nn(-c4ccc(C(F)(F)F)cc4)c4ncccc34)cc2=O)n1` [Compound 130, (R)-1-(1-(2-(methylamino)pyrimidin-4-yl)ethyl)-4-(1-(4-(trifluoromethyl)phenyl)-1H-pyrazolo[3,4-b]pyridin-3-yl)pyridin-2(1H)-one], the values for the IC50 in assay [1] and in assay [2] were 100 to 1000 nM and at most 1000 nM, respectively.

In the case of `CNc1nccc([C@H](C)n2ccc(-c3nn(-c4ccc(C(F)(F)F)cc4)c4ncccc34)cc2=O)n1` [Compound 131, (S)-1-(1-(2-(methylamino)pyrimidin-4-yl)ethyl)-4-(1-(4-(trifluoromethyl)phenyl)-1H-pyrazolo[3,4-b]pyridin-3-yl)pyridin-2(1H)-one], the concentration for half-maximal inhibition (IC50) in assay [1] was at most 100 nM; in assay [2], at most 1000 nM.

In the case of `O=c1cc(-c2nc(-c3ccc(C(F)(F)F)cc3)n3ccccc23)ccn1Cc1ccnc(OCCO)n1` [Compound 132, 1-((2-(2-hydroxyethoxy)pyrimidin-4-yl)methyl)-4-(3-(4-(trifluoromethyl)phenyl)imidazo[1,5-a]pyridin-1-yl)pyridin-2(1H)-one], the IC50 was at most 100 nM in assay [1] and at most 1000 nM in assay [2].

Take `O=c1cc(-c2nn(-c3ccc(C(F)(F)F)cc3)c3c(F)cccc23)ccn1Cc1ccnc(OCCO)n1` [Compound 133, 4-(7-fluoro-1-(4-(trifluoromethyl)phenyl)-1H-indazol-3-yl)-1-((2-(2-hydroxyethoxy)pyrimidin-4-yl)methyl)pyridin-2(1H)-one]: the 50% inhibitory concentration (IC50) in assay [1] was at most 100 nM; in assay [2], at most 1000 nM.

With `COCCOc1nccc(Cn2ccc(-c3nn(-c4ccc(C(F)(F)F)cc4)c4c(F)cccc34)cc2=O)n1` [Compound 134, 4-(7-fluoro-1-(4-(trifluoromethyl)phenyl)-1H-indazol-3-yl)-1-((2-(2-methoxyethoxy)pyrimidin-4-yl)methyl)pyridin-2(1H)-one], the values for the 50% inhibitory concentration (IC50) in assay [1] and in assay [2] were at most 100 nM and at most 1000 nM, respectively.

Turning to `CNc1nccc(Cn2ccc(-n3nc(-c4ccc(C(F)(F)F)cc4)c4c(F)cccc43)cc2=O)n1` [Compound 135, 4-(4-fluoro-3-(4-(trifluoromethyl)phenyl)-1H-indazol-1-yl)-1-((2-(methylamino)pyrimidin-4-yl)methyl)pyridin-2(1H)-one], the half-maximal inhibitory concentration (IC50) in assay [1] is at most 100 nM; in assay [2], at most 1000 nM.

Turning to `O=c1cc(-n2nc(-c3ccc(C(F)(F)F)cc3)c3c(F)cccc32)ccn1Cc1ccnc(OCCO)n1` [Compound 136, 4-(4-fluoro-3-(4-(trifluoromethyl)phenyl)-1H-indazol-1-yl)-1-((2-(2-hydroxyethoxy)pyrimidin-4-yl)methyl)pyridin-2(1H)-one], the 50% inhibitory concentration (IC50) in assay [1] is at most 100 nM; in assay [2], at most 1000 nM.

With `COCCOc1nccc(Cn2ccc(-n3nc(-c4ccc(C(F)(F)F)cc4)c4c(F)cccc43)cc2=O)n1` [Compound 137, 4-(4-fluoro-3-(4-(trifluoromethyl)phenyl)-1H-indazol-1-yl)-1-((2-(2-methoxyethoxy)pyrimidin-4-yl)methyl)pyridin-2(1H)-one], the 50% inhibitory concentration (IC50) was at most 100 nM in assay [1] and at most 1000 nM in assay [2].

For `CN(CCO)c1nccc(Cn2ccc(-c3nn(-c4ccc(C(F)(F)F)cc4)c4c(F)cccc34)cc2=O)n1` [Compound 138, 4-(7-fluoro-1-(4-(trifluoromethyl)phenyl)-1H-indazol-3-yl)-1-((2-((2-hydroxyethyl)(methyl)amino)pyrimidin-4-yl)methyl)pyridin-2(1H)-one], the results for the IC50 in assay [1] and in assay [2] were 100 to 1000 nM and at most 1000 nM, respectively.

In the case of `CN(CCO)c1nccc(Cn2ccc(-n3nc(-c4ccc(C(F)(F)F)cc4)c4c(F)cccc43)cc2=O)n1` [Compound 139, 4-(4-fluoro-3-(4-(trifluoromethyl)phenyl)-1H-indazol-1-yl)-1-((2-((2-hydroxyethyl)(methyl)amino)pyrimidin-4-yl)methyl)pyridin-2(1H)-one], the half-maximal inhibitory concentration (IC50) was at most 100 nM in assay [1] and at most 1000 nM in assay [2].

On to `CNc1nccc(Cn2ccc(-c3nn(-c4ccc(C(F)(F)F)cc4)c4ccc(F)cc34)cc2=O)n1` [Compound 140, 4-(5-fluoro-1-(4-(trifluoromethyl)phenyl)-1H-indazol-3-yl)-1-((2-(methylamino)pyrimidin-4-yl)methyl)pyridin-2(1H)-one], for which the IC50 was at most 100 nM in assay [1] and at most 1000 nM in assay [2].

`CNc1nccc(Cn2ccc(-c3nn(-c4ccc(C(F)(F)F)cc4)c4cc(F)ccc34)cc2=O)n1` [Compound 141, 4-(6-fluoro-1-(4-(trifluoromethyl)phenyl)-1H-indazol-3-yl)-1-((2-(methylamino)pyrimidin-4-yl)methyl)pyridin-2(1H)-one]: the IC50 in assay [1] was at most 100 nM; in assay [2], at most 1000 nM.

With `CNc1nccc(Cn2ccc(-c3nn(-c4ccc(C(F)(F)F)cc4)c4c(OC)cccc34)cc2=O)n1` [Compound 142, 4-(7-methoxy-1-(4-(trifluoromethyl)phenyl)-1H-indazol-3-yl)-1-((2-(methylamino)pyrimidin-4-yl)methyl)pyridin-2(1H)-one], the IC50 is 100 to 1000 nM in assay [1] and at most 1000 nM in assay [2].

On to `CNc1nccc(Cn2ccc(-c3nn(-c4ccc(C(F)(F)F)cc4)c4c(C)cccc34)cc2=O)n1` [Compound 143, 4-(7-methyl-1-(4-(trifluoromethyl)phenyl)-1H-indazol-3-yl)-1-((2-(methylamino)pyrimidin-4-yl)methyl)pyridin-2(1H)-one], for which the figures for the half-maximal inhibitory concentration (IC50) in assay [1] and in assay [2] were 100 to 1000 nM and at most 1000 nM, respectively.
